The values below come from patent US20230346827A1 (priority 2020, published 2023).

Experiment [1] deals with PBMC and HUVEC + TCR ligands. Kind of experiment: BioMAP SAg system. Format: cell-based, human. The conditions noted are these: annotated relative to vehicle controls. From the text: Cell types and stimuli used in each system are as follows: 3C system [HUVEC + (IL-1β, TNFα and IFNy)], 4H system [HUVEC + (IL-4 and histamine)], LPS system [PBMC and HUVEC + LPS (TLR4 ligand)], SAg system [PBMC and HUVEC + TCR ligands], BT system [CD19+ B cells and PBMC + (α-IgM and TCR ligands)], BF4T system [bronchial epithelial cells and HDFn + (TNFα and IL-4)], BE3C system [bronchial epithelial cells + (IL-1β, TNFα and IFNy)], CASM3C system [coronary artery smooth muscle cells + (IL-1 β, TNFα and IFNy)], HDF3CGF system [HDFn + (IL-1β, TNFα, IFNy, EGF, bFGF and PDGF-BB)], KF3CT system [keratinocytes and HDFn + (IL-1β, TNFα, IFNy and TGFβ)], MyoF system [differentiated lung myofibroblasts + (TNFα and TGFβ)] and Mphg system [HUVEC and M1 macrophages + Zymosan (TLR2 ligand)].
Systems are derived from either single cell types or co-culture systems. Adherent cell types are cultured in 96 or 384-well plates until confluence, followed by the addition of PBMC (SAg and LPS systems). […] Soluble factors from supernatants are quantified using either HTRF® detection, bead-based multiplex immunoassay or capture ELISA. Overt adverse effects of test agents on cell proliferation and viability (cytotoxicity) are detected by sulforhodamine B (SRB) staining, for adherent cells, and alamarBlue® reduction for cells in suspension. […]

The next experiment has as its system SARS-CoV-2. The conditions noted are these: incubation of SARS-CoV-2 with exogenous LMW-DS; cited from earlier work.

Consider sodium salt of dextran sulfate [LMW-DS], for which the Increased biomarker activity result in experiment [1] is reported as “IL-8”. The “SARS-CoV-2 attachment to human epithelial cell lines” value with SARS-CoV-2 is reported as “reduces attachment”.
